Legend:
Test in all cases: relative viability (nuclei count vs DMSO), 5 days (fraction); higher = more cells survive
[1] = compound: C1CC(C2=C(C1)C3=C(N2)C=CC(=C3)Cl)C(=O)N [Selisistat] + C[C@]1(O)C[C@@H](c2nc(-c3ccc4ccc(-c5ccccc5)nc4c3)c3c(N)nccn32)C1 [Linsitinib] (partner 1 µM)
Method in brief: (§1)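 A single step with final 0.05% Triton X-100, 1% formaldehyde and 1 ug/ml Hoechst fixed the cells and stained nuclei 5 days after treatment. Lung cancer cell lines in 1536-well plates had been treated by pin tool the day after seeding with one drug alone or a fixed anchor-drug dose plus five library-drug doses (not always all listed) in √10 steps, and nuclei were counted on 4× images. Relative viability is the ratio of nuclei in treated wells to nuclei in vehicle wells, taken as the median of duplicate plates.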

[2] = compound: C1CC(C2=C(C1)C3=C(N2)C=CC(=C3)Cl)C(=O)N [Selisistat] + Cc1nc(Nc2ncc(C(=O)Nc3c(C)cccc3Cl)s2)cc(N2CCN(CCO)CC2)n1 [Dasatinib] (partner 0.075 µM)
Method in brief: as §1

[3] = compound: C1CC(C2=C(C1)C3=C(N2)C=CC(=C3)Cl)C(=O)N [Selisistat] + Nc1nc2[nH]cc(CCc3ccc(C(=O)N[C@@H](CCC(=O)O)C(=O)O)cc3)c2c(=O)[nH]1 [Pemetrexed] (partner 0.2 µM)
Method in brief: as §1

[4] = compound: c1ccc2c(CCNc3ccc(Nc4ccncc4)cc3)c[nH]c2c1 [Serdemetan] + CS(=O)(=O)CCNCc1ccc(-c2ccc3ncnc(Nc4ccc(OCc5cccc(F)c5)c(Cl)c4)c3c2)o1 [Lapatinib] (partner 2 µM)
Method in brief: as §1

Row | Cell Line | relative viability ([1]; first compound 0.4 µM) | relative viability ([1]; first compound 1.265 µM) | relative viability ([1]; first compound 4 µM) | relative viability ([1]; first compound 12.65 µM) | relative viability ([1]; first compound 40 µM) | relative viability ([2]; first compound 0.4 µM) | relative viability ([2]; first compound 1.265 µM) | relative viability ([2]; first compound 4 µM) | relative viability ([2]; first compound 12.65 µM) | relative viability ([2]; first compound 40 µM) | relative viability ([3]; first compound 0.4 µM) | relative viability ([3]; first compound 1.265 µM) | relative viability ([3]; first compound 4 µM) | relative viability ([3]; first compound 12.65 µM) | relative viability ([3]; first compound 40 µM) | relative viability ([4]; first compound 0.04 µM) | relative viability ([4]; first compound 0.1265 µM) | relative viability ([4]; first compound 0.4 µM) | relative viability ([4]; first compound 1.265 µM) | relative viability ([4]; first compound 4 µM)
1 | NCI-H1563 | 1.08 | 1.15 | 1.17 | 1.07 | 0.83 | 0.496 | 0.443 | 0.319 | 0.438 | 0.549 | 0.831 | 0.857 | 0.713 | 0.664 | 0.611 | 0.637 | 0.892 | 0.527 | 0.799 | 0.723
2 | NCI-H23 | 0.631 | 0.466 |  | 0.579 | 0.6 | 0.784 | 0.95 | 0.571 | 0.8 | 0.772 | 0.649 | 0.742 |  | 0.619 | 0.595 | 1.11 | 1.19 | 1.13 | 0.818 | 1.07
3 | LCLC-97TM1 | 0.166 | 0.156 | 0.193 | 0.167 | 0.245 | 0.8 | 0.887 |  | 0.889 | 0.944 | 0.153 | 0.177 |  | 0.155 | 0.206 | 0.776 | 1.16 | 1.11 | 0.674 | 0.87
4 | EPLC-272H | 1.24 | 1.2 |  | 1 | 1.2 | 0.352 | 0.33 |  | 0.369 | 0.381 | 0.257 | 0.315 | 0.317 | 0.336 | 0.284 | 1.01 | 0.905 | 1.07 | 0.618 | 0.944
5 | NCI-H1915 | 1.15 | 1.09 | 1.14 | 1.08 | 1.13 | 0.322 | 0.312 | 0.261 | 0.319 | 0.313 | 0.494 | 0.559 | 0.495 | 0.462 | 0.489 | 0.967 | 0.995 | 1.03 | 0.955 | 0.965
6 | NCI-H2405 | 0.975 |  |  | 0.948 | 0.885 | 0.221 | 0.189 | 0.178 | 0.204 | 0.276 | 0.984 | 1.04 |  | 1.01 | 1.04 | 1 | 1.06 | 1.17 | 1.07 | 0.963
7 | NCI-H322M | 1 | 1.03 |  | 0.959 | 0.976 | 0.266 | 0.259 | 0.243 | 0.26 | 0.26 | 0.558 | 0.633 |  | 0.515 | 0.618 | 0.577 | 0.585 | 0.546 | 0.546 | 0.562
8 | NCI-H1395 | 1.16 | 1.28 | 1.02 | 1 | 0.521 | 0.468 | 0.426 | 0.407 | 0.402 | 0.389 | 0.97 | 0.968 |  | 0.639 | 0.908 | 1.04 | 1.07 | 1.34 | 0.932 | 0.717
9 | NCI-H358 | 0.722 | 0.726 |  | 0.687 | 0.68 | 0.201 | 0.158 | 0.114 | 0.235 | 0.226 | 0.182 | 0.221 | 0.158 | 0.177 | 0.19 | 0.42 | 0.509 | 0.439 | 0.558 | 0.405
10 | NCI-H838 | 1.06 | 1.06 | 1.03 | 1.06 | 1.06 | 0.273 | 0.293 | 0.263 | 0.279 | 0.285 | 0.243 | 0.243 | 0.222 | 0.228 | 0.226 | 0.9 | 0.986 | 0.9 | 0.86 | 1.01
11 | CAL-12T | 0.85 | 0.799 | 0.82 | 0.784 | 0.862 | 0.451 | 0.478 | 0.316 | 0.281 | 0.372 | 1.29 | 1.25 | 1.3 | 1.12 | 1.23 |  | 0.859 |  | 0.599 | 0.579

Reference: the supplement of paper PMC10307832
